Source: US9828393B2, “Silylalkyloxyaryl compounds and methods for treating cancer” (THE REGENTS OF THE UNIVERSITY OF COLORADO, a body corporate, priority 2013, dated 2017)
Where two headings read alike, the source gives them in different places.

Columns and labels:
Type in all cases: cell-based, human
MDA-MB-435 = assay: NCI-60 cell line screen (SRB), MDA-MB-435; conditions: Homo sapiens
Experimental: (§1) Drug sensitivity data are provided as GI50s (concentrations required to inhibit growth by 50%). The first row of the text file identifies cell lines, separated by tabs. Subsequent rows contain compound number, compound name, and GI50 for each cell line, each separated by a tab. […] For a typical screening experiment, cells are inoculated into 96 well microtiter plates in 100 μL at plating densities ranging from 5,000 to 40,000 cells/well depending on the doubling time of individual cell lines. After cell inoculation, the microtiter plates are incubated at 37° C., 5% CO2, 95% air and 100% relative humidity for 24 h prior to addition of experimental drugs. After 24 h, two plates of each cell line are fixed in situ with TCA, to represent a measurement of the cell population for each cell line at the time of drug addition (Tz). Experimental drugs are solubilized in dimethyl sulfoxide at 400-fold the desired final maximum test concentration and stored frozen prior to use. At the time of drug addition, an aliquot of frozen concentrate is thawed and diluted to twice the desired final maximum test concentration with complete medium containing 50 μg/ml gentamicin. Additional four, 10-fold or one-half log serial dilutions are made to provide a total of five drug concentrations plus control. Aliquots of 100 μl of these different drug dilutions are added to the appropriate microtiter wells already containing 100 μl of medium, resulting in the required final drug concentrations. Following drug addition, the plates are incubated for an additional 48 h at 37° C., 5% CO2, 95% air, and 100% relative humidity. For adherent cells, the assay is terminated by the addition of cold TCA. Cells are fixed in situ by the gentle addition of 50 μl of cold 50% (w/v) TCA (final concentration, 10% TCA) and incubated for 60 minutes at 4° C. The supernatant is discarded, and the plates are washed five times with tap water and air dried. Sulforhodamine B (SRB) solution (100 μl) at 0.4% (w/v) in 1% acetic acid is added to each well, and plates are incubated for 10 minutes at room temperature. After staining, unbound dye is removed by washing five times with 1% acetic acid and the plates are air dried. Bound stain is subsequently solubilized with 10 mM trizma base, and the absorbance is read on an automated plate reader at a wavelength of 515 nm. For suspension cells, the methodology is the same except that the assay is terminated by fixing settled cells at the bottom of the wells by gently adding 50 μl of 80% TCA (final concentration, 16% TCA). Using the seven absorbance measurements [time zero, (Tz), control growth, (C), and test growth in the presence of drug at the five concentration levels (Ti)], the percentage growth is calculated at each of the drug concentrations levels. […]

MDA-MB-231/ATCC = assay: NCI-60 cell line screen (SRB), MDA-MB-231/ATCC; conditions: Homo sapiens
Experimental: as §1

CNS Cancer cell lines = assay: NCI-60 cell line screen, CNS Cancer panel average; conditions: Homo sapiens, read-out: GI50 Average
Experimental: as §1

SF-539 = assay: NCI-60 cell line screen (SRB), SF-539; conditions: Homo sapiens
Experimental: as §1

Colon Cancer cell lines = assay: NCI-60 cell line screen, Colon Cancer panel average; conditions: Homo sapiens, read-out: GI50 Average
Experimental: as §1

IGROV1 = assay: NCI-60 cell line screen (SRB), IGROV1; conditions: Homo sapiens
Experimental: as §1

U-251 = assay: NCI-60 cell line screen (SRB), U-251; conditions: Homo sapiens
Experimental: as §1

RPMI-8226 = assay: NCI-60 cell line screen (SRB), RPMI-8226; conditions: Homo sapiens
Experimental: as §1

CAKI-1 = assay: NCI-60 cell line screen (SRB), CAKI-1; conditions: Homo sapiens
Experimental: as §1

[1] = system: Non-Small Cell Lung Cancer cell lines; assay: NCI-60 cell line screen, Non-Small Cell Lung Cancer panel average; conditions: Homo sapiens, read-out: GI50 Average
Experimental: as §1

NCI-H23 = assay: NCI-60 cell line screen (SRB), NCI-H23; conditions: Homo sapiens
Experimental: as §1

TK-10 = assay: NCI-60 cell line screen (SRB), TK-10; conditions: Homo sapiens
Experimental: as §1

SW-620 = assay: NCI-60 cell line screen (SRB), SW-620; conditions: Homo sapiens
Experimental: as §1

MOLT-4 = assay: NCI-60 cell line screen (SRB), MOLT-4; conditions: Homo sapiens
Experimental: as §1

CCRF-CEM = assay: NCI-60 cell line screen (SRB), CCRF-CEM; conditions: Homo sapiens
Experimental: as §1

NCI-H522 = assay: NCI-60 cell line screen (SRB), NCI-H522; conditions: Homo sapiens
Experimental: as §1

A549/ATCC = assay: NCI-60 cell line screen (SRB), A549/ATCC; conditions: Homo sapiens
Experimental: as §1

NCI-H460 = assay: NCI-60 cell line screen (SRB), NCI-H460; conditions: Homo sapiens
Experimental: as §1

LOX IMVI = assay: NCI-60 cell line screen (SRB), LOX IMVI; conditions: Homo sapiens
Experimental: as §1

786-0 = assay: NCI-60 cell line screen (SRB), 786-0; conditions: Homo sapiens
Experimental: as §1

PC-3 = assay: NCI-60 cell line screen (SRB), PC-3; conditions: Homo sapiens
Experimental: as §1

HL-60(TB) = assay: NCI-60 cell line screen (SRB), HL-60(TB); conditions: Homo sapiens
Experimental: as §1

HT29 = assay: NCI-60 cell line screen (SRB), HT29; conditions: Homo sapiens
Experimental: as §1

NCI-H226 = assay: NCI-60 cell line screen (SRB), NCI-H226; conditions: Homo sapiens
Experimental: as §1

SMILES: CC1(C)CC(NC(=O)[C@H](Cc2ccc(OCc3c(Cl)cccc3Cl)cc2)NC(=O)c2ccc(OCCC[Si](C)(C)C)cc2)CC(C)(C)N1 [GH1501, N^α-{4-[3-(trimethylsilyl)propoxy]-benzoyl}-N-(2,2,6,6-tetramethylpiperidin-4-yl)-[O-(2,6-dichlorobenzyl)-L-tyrosinamide]]
- GI50 (MDA-MB-435; MDA-MB-435, 48 h): 269 nM
- GI50 (MDA-MB-231/ATCC; MDA-MB-231, 48 h): 881 nM
- GI50 (CNS Cancer cell lines): 1190 nM
- GI50 (SF-539; SF-539, 48 h): 1770 nM
- GI50 (Colon Cancer cell lines): 395 nM
- GI50 (IGROV1; IGROV-1, 48 h): 1200 nM
- GI50 (U-251; U-251, 48 h): 230 nM
- GI50 (RPMI-8226; RPMI-8226, 48 h): 1320 nM
- GI50 (CAKI-1; CAKI-1, 48 h): 1360 nM
- GI50 [1]: 1330 nM
- GI50 (NCI-H23; NCI-H23, 48 h): 1650 nM
- GI50 (TK-10; TK-10, 48 h): 1850 nM
- GI50 (SW-620; SW-620, 48 h): 313 nM
- GI50 (MOLT-4; MOLT-4, 48 h): 353 nM
- GI50 (CCRF-CEM; 48 h): 1200 nM
- GI50 (NCI-H522; NCI-H522, 48 h): 1820 nM
- GI50 (A549/ATCC; A549, 48 h): 407 nM
- GI50 (NCI-H460; NCI-H460, 48 h): 253 nM
- GI50 (LOX IMVI; 48 h): 197 nM
- GI50 (786-0; 786-0, 48 h): 369 nM
- GI50 (PC-3; PC-3, 48 h): 1320 nM
- GI50 (HL-60(TB); HL-60, 48 h): 813 nM
- GI50 (HT29; HT-29, 48 h): 263 nM
- GI50 (NCI-H226; NCI-H226, 48 h): 1770 nM

SMILES: CCCC[Si](C)(C)COc1ccc(C(=O)N[C@@H](Cc2ccc(OCc3c(Cl)cccc3Cl)cc2)C(=O)NC2CC(C)(C)NC(C)(C)C2)cc1 [GH1503, N^α-{4-[(butyldimethylsilyl)methoxy]-benzoyl}-N-(2,2,6,6-tetramethylpiperidin-4-yl)-[O-(2,6-dichlorobenzyl)-L-tyrosinamide]]
- GI50 (MDA-MB-435; Melanoma, MDA-MB-435, 48 h drug incubation, read-out: GI50): 250 nM
- GI50 (MDA-MB-231/ATCC; Breast Cancer, MDA-MB-231/ATCC, 48 h drug incubation, read-out: GI50): 494 nM
- GI50 (CNS Cancer cell lines; average over CNS Cancer panel): 1100 nM
- GI50 (SF-539; CNS Cancer, SF-539, 48 h drug incubation, read-out: GI50): 1730 nM
- GI50 (Colon Cancer cell lines; average over Colon Cancer panel): 442 nM
- GI50 (IGROV1; IGROV-1, Ovarian Cancer, IGROV1, 48 h drug incubation, read-out: GI50): 704 nM
- GI50 (U-251; CNS Cancer, U-251, 48 h drug incubation, read-out: GI50): 234 nM
- GI50 (RPMI-8226; Leukemia, RPMI-8226, 48 h drug incubation, read-out: GI50): 893 nM
- GI50 (CAKI-1; Renal Cancer, CAKI-1, 48 h drug incubation, read-out: GI50): 1080 nM
- GI50 ([1]; average over Non-Small Cell Lung Cancer panel): 1210 nM
- GI50 (NCI-H23; Non-Small Cell Lung Cancer, NCI-H23, 48 h drug incubation, read-out: GI50): 1560 nM
- GI50 (TK-10; Renal Cancer, TK-10, 48 h drug incubation, read-out: GI50): 1890 nM
- GI50 (SW-620; Colon Cancer, SW-620, 48 h drug incubation, read-out: GI50): 318 nM
- GI50 (MOLT-4; Leukemia, MOLT-4, 48 h drug incubation, read-out: GI50): 315 nM
- GI50 (CCRF-CEM; Leukemia, 48 h drug incubation, read-out: GI50): 531 nM
- GI50 (NCI-H522; Non-Small Cell Lung Cancer, NCI-H522, 48 h drug incubation, read-out: GI50): 1970 nM
- GI50 (A549/ATCC; Non-Small Cell Lung Cancer, A549/ATCC, 48 h drug incubation, read-out: GI50): 332 nM
- GI50 (NCI-H460; Non-Small Cell Lung Cancer, NCI-H460, 48 h drug incubation, read-out: GI50): 259 nM
- GI50 (LOX IMVI; Melanoma, 48 h drug incubation, read-out: GI50): 191 nM
- GI50 (786-0; Renal Cancer, 786-0, 48 h drug incubation, read-out: GI50): 468 nM
- GI50 (PC-3; Prostate Cancer, PC-3, 48 h drug incubation, read-out: GI50): 490 nM
- GI50 (HL-60(TB); Leukemia, HL-60(TB), 48 h drug incubation, read-out: GI50): 790 nM
- GI50 (HT29; HT-29, Colon Cancer, HT29, 48 h drug incubation, read-out: GI50): 342 nM
- GI50 (NCI-H226; Non-Small Cell Lung Cancer, NCI-H226, 48 h drug incubation, read-out: GI50): 1340 nM

SMILES: CCCC[Si](C)(C)COc1ccc(C(=O)N[C@@H](Cc2ccc(-c3ccccc3)cc2)C(=O)NC2CC(C)(C)NC(C)(C)C2)cc1 [GH1504, N^α-{4-[(butyldimethylsilyl)methoxy]-benzoyl}-N-(2,2,6,6-tetramethylpiperidin-4-yl)-(4-phenyl-L-phenylalaninamide)]
- GI50 (MDA-MB-435; MDA-MB-435, 48 h): 292 nM
- GI50 (MDA-MB-231/ATCC; MDA-MB-231, 48 h): 880 nM
- GI50 (CNS Cancer cell lines): 1170 nM
- GI50 (SF-539; SF-539, 48 h): 1770 nM
- GI50 (Colon Cancer cell lines): 408 nM
- GI50 (IGROV1; IGROV-1, 48 h): 1640 nM
- GI50 (U-251; U-251, 48 h): 238 nM
- GI50 (RPMI-8226; RPMI-8226, 48 h): 1950 nM
- GI50 (CAKI-1; CAKI-1, 48 h): 1580 nM
- GI50 [1]: 1020 nM
- GI50 (NCI-H23; NCI-H23, 48 h): 1760 nM
- GI50 (TK-10; TK-10, 48 h): 1110 nM
- GI50 (SW-620; SW-620, 48 h): 316 nM
- GI50 (MOLT-4; MOLT-4, 48 h): 775 nM
- GI50 (CCRF-CEM; 48 h): 1500 nM
- GI50 (NCI-H522; NCI-H522, 48 h): 1060 nM
- GI50 (A549/ATCC; A549, 48 h): 326 nM
- GI50 (NCI-H460; NCI-H460, 48 h): 348 nM
- GI50 (LOX IMVI; 48 h): 207 nM
- GI50 (786-0; 786-0, 48 h): 780 nM
- GI50 (PC-3; PC-3, 48 h): 1300 nM
- GI50 (HL-60(TB); HL-60, 48 h): 1220 nM
- GI50 (HT29; HT-29, 48 h): 315 nM
- GI50 (NCI-H226; NCI-H226, 48 h): 183 nM
